Literature values in PMC10784415 (Developmental dynamics : an official publication of the …, 2023).

Tested on: tooth buds
Conditions: animal studies; cited from earlier work

COc1cc2nccc(Oc3ccc(NC(=O)Nc4cc(C)on4)c(Cl)c3)c2cc1OC [tivozanib]
Effect on tooth buds: shallower or narrower tooth buds
